Earlier results, collected in publication PMC3880798 (Clinical cancer research : an official journal of the …, 2013).
Read-outs that look alike come from different tables or passages of the source.

How the values were obtained:
c-Kit = conditions: intact cellular systems; cited from earlier work
GIST = conditions: cited from earlier work
[1] = cited from earlier work

Q: With `Cc1ccc(NC(=O)c2ccc(CN3CCN(C)CC3)cc2)cc1Nc1nccc(-c2cccnc2)n1` [imatinib] as the molecule, how does the “Potency for wild-type versus mutant c-Kit” value (c-Kit) read?
A: The value was “significantly lower potency for wild-type c-Kit relative to mutant c-Kit”.

Q: And the “Median time to progression” value (GIST)?
A: The value was “approximately 2 years”.

Q: What about the “Median duration of response” value (GIST; first-line) of the same molecule?
A: Its value is “about 2 years”.

Q: For `Cc1cn(-c2cc(NC(=O)c3ccc(C)c(Nc4nccc(-c5cccnc5)n4)c3)cc(C(F)(F)F)c2)cn1` [nilotinib], which Disease stabilization (GIST) is on record?
A: The Disease stabilization was 38%.

Q: What about the “Median duration of disease stabilization” value (GIST) of the same molecule?
A: The value was 12 weeks.

Q: With `Cc1ccc(Nc2nccc(N(C)c3ccc4c(C)n(C)nc4c3)n2)cc1S(N)(=O)=O` [pazopanib] as the molecule, how does the Patients with proteinuria [1] read?
A: Its Patients with proteinuria is 51%.

Q: Which results are given for `CCN(CC)CCNC(=O)c1c(C)[nH]c(/C=C2\C(=O)Nc3ccc(F)cc32)c1C` [sunitinib]?
A: Median time to progression (GIST; standard second-line therapy): 27 weeks; Incidence of PPE [1]: up to 20%
